Laboratory results reported in patent US20220233566A1, “NOVEL CARBONATE COMPOUND HAVING PYRROLOPYRIMIDINE SKELETON OR PHARMACEUTICALLY ACCEPTABLE SALT THEREOF” (TAIHO PHARMACEUTICAL CO., LTD., priority 2019, published 2022).

Legend:
Format in all cases: cell-based
[1] = Growth suppression activity in human tumor cell line; settings: 72 h; Human prostate cancer, DUI45, 3 days
Protocol: (§1) Human tumor cell lines different in type were suspended in mediums, seeded in individual wells of a multi-well plate and cultured. On the day after initiation of culture, serially diluted solutions of a compound were added. Culture was carried out for further 3 days. Cells were counted by a CellTiter-Glo (manufactured by Promega KK) in accordance with the protocol recommended by Promega KK. Cell viability was calculated in accordance with the equation shown below and the concentration (IC50 (μM)) of the compound at which 50% of cell growth is inhibited was obtained.
(§2) T: Intensity of light emitted from a well containing a compound
(§3) C: Intensity of light emitted from a well containing no compound

[2] = system: 786-0; assay: as above; settings: 72 h; Human renal cancer, 786-0, 3 days
Protocol: as §1, §2, §3

[3] = system: BC3; assay: as above; settings: BC-3, 72 h; Human hematopoietic organ tumor, BC3, 3 days
Protocol: as §1, §2, §3

[4] = system: BHL-89; assay: as above; settings: 72 h; Human hematopoietic organ tumor, BHL-89, 3 days
Protocol: as §1, §2, §3

[5] = system: CA9-22; assay: as above; settings: 72 h; Human head and neck cancer, CA9-22, 3 days
Protocol: as §1, §2, §3

[6] = system: DLD1; assay: as above; settings: DLD-1, 72 h; Human colorectal cancer, DLD1, 3 days
Protocol: as §1, §2, §3

[7] = system: DOK; assay: as above; settings: 72 h, Human head and neck cancer, 3 days
Protocol: as §1, §2, §3

[8] = system: H1975; assay: as above; settings: NCI-H1975, 72 h; Human lung cancer, H1975, 3 days
Protocol: as §1, §2, §3

[9] = system: H2081; assay: as above; settings: NCI-H2081, 72 h; Human lung cancer, H2081, 3 days
Protocol: as §1, §2, §3

[10] = system: H23; assay: as above; settings: NCI-H23, 72 h; Human lung cancer, H23, 3 days
Protocol: as §1, §2, §3

[11] = system: H69; assay: as above; settings: NCI-H69, 72 h; Human lung cancer, H69, 3 days
Protocol: as §1, §2, §3

[12] = system: HL60; assay: as above; settings: HL-60, 72 h; Human hematopoietic organ tumor, HL60, 3 days
Protocol: as §1, §2, §3

[13] = system: HT1376; assay: as above; settings: HT-1376, 72 h; human bladder cancer, HT1376, 3 days
Protocol: as §1, §2, §3

[14] = system: K562; assay: as above; settings: 72 h; Human hematopoietic organ tumor, K562, 3 days
Protocol: as §1, §2, §3

[15] = system: LN229; assay: as above; settings: LN-229, 72 h; Human brain tumor, LN229, 3 days
Protocol: as §1, §2, §3

[16] = system: Mero83; assay: as above; settings: 72 h; Human lung cancer, Mero83, 3 days
Protocol: as §1, §2, §3

[17] = system: SPC111; assay: as above; settings: 72 h; Human lung cancer, SPC111, 3 days
Protocol: as §1, §2, §3

[18] = system: SW48; assay: as above; settings: 72 h; Human colorectal cancer, SW48, 3 days
Protocol: as §1, §2, §3

[19] = system: SW620; assay: as above; settings: SW-620, 72 h; Human colorectal cancer, SW620, 3 days
Protocol: as §1, §2, §3

[20] = system: A431; assay: Growth suppression activity to human tumor cell line (Evaluation 2); settings: Human epidermoid carcinoma, A431, 3 days
Protocol: (§4) Human tumor cell lines different in type were suspended in mediums, seeded in individual wells of a multi-well plate and cultured. On the day after initiation of culture, serially diluted solutions of a compound were added. Culture was carried out for further 3 days. Cells were counted by a CellTiter-Glo (manufactured by Promega KK) in accordance with the protocol recommended by Promega KK. Cell viability was calculated in accordance with the equation shown below and the concentration (IC50 (nM)) of the compound at which 50% of cell growth is inhibited was obtained.
as §2, §3

[21] = system: A549; assay: as above; settings: A549, 72 h, Human lung cancer, A549, 3 days
Protocol: as §4, §2, §3

[22] = system: H1650; assay: as above; settings: NCI-H1650, 72 h, Human lung cancer, H1650, 3 days
Protocol: as §4, §2, §3

[23] = system: H2122; assay: as above; settings: NCI-H2122, 72 h, Human lung cancer, H2122, 3 days
Protocol: as §4, §2, §3

[24] = system: H358; assay: as above; settings: NCI-H358, 72 h, Human lung cancer, H358, 3 days
Protocol: as §4, §2, §3

[25] = system: HCC827; assay: as above; settings: Human lung cancer, HCC827, 3 days
Protocol: as §4, §2, §3

[26] = system: RKO; assay: as above; settings: 72 h, Human colorectal cancer, 3 days
Protocol: as §4, §2, §3

[27] = system: SK-BR-3; assay: as above; settings: Human breast cancer, SK-BR-3, 3 days
Protocol: as §4, §2, §3

Nc1ncnc2c1c(Br)cn2[C@@H]1O[C@H](CO)[C@@H](O)[C@@H]1F [Comparative Example 1, (2R,3R,4S,5R)-5-(4-amino-5-bromo-7H-pyrrolo[2,3-d]pyrimidin-7-yl)-4-fluoro-2-(hydroxymethyl) tetrahydrofuran-3-ol]
IC50 [1]: 90 nM | IC50 [2]: 220 nM | IC50 [3]: 20 nM | IC50 [4]: 230 nM | IC50 [5]: 80 nM | IC50 [6]: 50 nM | IC50 [7]: 110 nM | IC50 [8]: 70 nM | IC50 [9]: 90 nM | IC50 [10]: 50 nM | IC50 [11]: 110 nM | IC50 [12]: 300 nM | IC50 [13]: 60 nM | IC50 [14]: 110 nM | IC50 [15]: 630 nM | IC50 [16]: 350 nM | IC50 [17]: 360 nM | IC50 [18]: 130 nM | IC50 [19]: 230 nM | IC50 ([20]; Homo sapiens, A-431, 72 h): 32 nM | IC50 [20]: 18 nM | IC50 [21]: 14 nM | IC50 [22]: 8 nM | IC50 [23]: 9 nM | IC50 [24]: 52 nM | IC50 ([25]; Homo sapiens, HCC827, 72 h): 228 nM | IC50 [25]: 176 nM | IC50 [26]: 31 nM | IC50 ([27]; Homo sapiens, SK-BR-3, 72 h): 26 nM | IC50 [27]: 23 nM
